From patent publication US20090197859A1 (Pfizer Inc., priority 2008, published 2009) come the findings set out here.

SMILES strings stand for the structures.

The target in the experiment is T1, cloned human 5-HT6 receptor (Homo sapiens, UniProt P50406).
T1 construct: host or cells: HeLa cells, G-418 selection, membrane preparation
T1 sequence (P50406 whole entry): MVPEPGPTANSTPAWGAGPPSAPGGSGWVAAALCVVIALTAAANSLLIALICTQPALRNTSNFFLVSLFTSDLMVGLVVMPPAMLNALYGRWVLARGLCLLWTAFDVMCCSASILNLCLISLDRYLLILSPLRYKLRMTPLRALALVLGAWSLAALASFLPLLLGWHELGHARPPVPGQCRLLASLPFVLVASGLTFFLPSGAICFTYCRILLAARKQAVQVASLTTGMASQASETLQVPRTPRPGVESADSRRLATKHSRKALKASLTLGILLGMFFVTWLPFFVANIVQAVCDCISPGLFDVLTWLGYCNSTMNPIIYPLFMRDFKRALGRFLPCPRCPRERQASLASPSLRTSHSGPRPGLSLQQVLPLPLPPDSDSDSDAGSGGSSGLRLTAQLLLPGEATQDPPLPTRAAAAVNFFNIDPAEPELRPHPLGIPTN
As to the kind of experiment: 5-HT6 Receptor Binding Assay ([3H]-LSD radioligand, SPA). The settings on record: read-out: 5HT6 % inh @ 1 uM. As to the method: 5-HT6 Receptor Binding Assay
Hela cells containing the cloned human 5-HT6 receptor were acquired from Dr. David R. Sibley's laboratory in National Institute of Health (see Sibley, D. R., J. Neurochemistry, 66, 47-56, 1996). Cells were grown in high glucose Dulbecco's modified Eagle's medium, supplemented with L-glutamine, 0.5% sodium pyruvate, 0.3% penicillin-streptomycin, 0.025% G-418 and 5% Gibco fetal bovine serum and then were harvested, when confluent, in cold phosphate buffered saline.
Harvested intact cells were washed once in cold phosphate-buffered saline. The cells were pelleted and resuspended in 100 ml of cold 50 mM Tris, 5 mM EDTA and 5 mM EGTA, pH 7.4. Homogenization was with a Vir Tishear generator, 4 cycles for 30 seconds each at setting 50. The homogenized cells were centrifuged at […] for 10 minutes and the supernatant was removed. The pellet was resuspended in 100 ml of the above buffer and rehomogenized for 2 cycles. The rehomogenized cells were then centrifuged at […] for 10 minutes and the supernatant was removed. The combined supernatant (200 ml) was centrifuged at 23,000 RPM (80,000×g) for 1 hour in a Beckman Rotor (42.1 Ti). The membrane pellet was resuspended in […] of assay buffer containing HEPES 20 mM, MgCl2 10 mM, NaCl 150 mM, EDTA 1 mM, pH 7.4 and stored frozen in aliqouts at −70° C.
The radioligand binding assay used [^3H]-lysergic acid diethylamide (LSD). The assay was carried out in Wallac 96-well sample plates by the addition of 11 μl of the test sample at the appropriate dilution (the assay employed 11 serial concentrations of samples run in duplicate), 11 μl of radioligand, and 178 μl of a washed mixture of WGA-coated SPA beads and membranes in binding buffer. The plates were shaken for about 5 minutes and then incubated at room temperature for 1 hour. The plates were then loaded into counting cassettes and counted in a Wallac MicroBeta Trilux scintillation counter.
Binding Constant Determination may be obtained by performing serial dilutions, e.g., eleven dilutions, of test compounds into assay plates using the PE/Cetus Pro/Pette pipetter. These dilutions are followed by radioligand and the bead-membrane mixture prepared as described above. After obtaining the specifically bound cpm, the data are fit to a one-site binding model using GraphPad Prism ver. 2.0. Estimated IC50 values are converted to Ki values using the Cheng-Prusoff equation (Cheng, Y. C. et al., Biochem. Pharmacol., 22, 3099-108, 1973).
On to `CN1CCC(c2cccc(C(=O)N3CCC(Oc4cccc(F)c4)CC3)n2)C1` (stereo not shown) [Example 16, [4-(3-Fluoro-phenoxy)-piperidin-1-yl]-[6-(1-methyl-pyrrolidin-3-yl)-pyridin-2-yl]-methanone], for which the inhibition at 1 µM is 93.2%.

Consider `CN1CC=C(c2cccc(C(=O)N3CCC(Oc4ccccc4F)CC3)n2)CC1` [Example 18, [4-(2-Fluoro-phenoxy)-piperidin-1-yl]-[1′-methyl-1′,2′,3′,6′-tetrahydro-[2,4′]bipyridinyl-6-yl)-methanone], for which the inhibition at 1 µM worked out at 95.3%.

For `CN1CCN(c2cccc(C(=O)N3CC=C(c4ccccc4F)CC3)n2)CC1` [Example 21, [4-(2-Fluoro-phenyl)-3,6-dihydro-2H-pyridin-1-yl]-[6-(4-methyl-piperazin-1-yl)-pyridin-2-yl]-methanone], the inhibition at 1 µM came out at 97.8%.

Regarding `O=C(c1cccc(N2CCNCC2)n1)N1CCC(c2ccccc2F)CC1` [Example 22, [4-(2-Fluoro-phenyl)-piperidin-1-yl]-(6-piperazin-1-yl-pyridin-2-yl)-methanone], the inhibition at 1 µM was determined as 96.8%.

Regarding `Cc1cccc(F)c1C1CCN(C(=O)c2cccc(N3CCN(C)CC3)n2)CC1` [Example 23, [4-(2-Fluoro-6-methyl-phenyl)-piperidin-1-yl]-[6-(4-methyl-piperazin-1-yl)-pyridin-2-yl]-methanone], the inhibition at 1 µM was 98.3%.

In the case of `Cc1ccccc1C1CCCCN1C(=O)c1cccc(N2CCNCC2)n1` (stereo not shown) [Example 26, (6-Piperazin-1-yl-pyridin-2-yl)-(2-o-tolyl-piperidin-1-yl)-methanone], the inhibition at 1 µM worked out at 78.6%.

Take `O=C(c1cccc(N2CCCNCC2)n1)N1CC[C@H](Oc2ccccc2F)C1` [Example 30, (6-[1,4]Diazepan-1-yl-pyridin-2-yl)-[(S)-3-(2-fluoro-phenoxy)-pyrrolidin-1-yl]-methanone]: the inhibition at 1 µM is 98.8%.

In the case of `CN1CCCN(c2cccc(C(=O)N3CC[C@@H](Oc4ccccc4F)C3)n2)CC1` [Example 46, [(R)-3-(2-Fluoro-phenoxy)-pyrrolidin-1-yl]-[6-(4-methyl-[1,4]diazepan-1-yl)-pyridin-2-yl]-methanone], the inhibition at 1 µM turned out to be 85%.

Consider `O=C(c1cccc(N2CCCNCC2)n1)N1CCC[C@@H](Oc2ccccc2F)C1` [Example 47, (6-[1,4]Diazepan-1-yl-pyridin-2-yl)-[(R)-3-(2-fluoro-phenoxy)-piperidin-1-yl]-methanone], for which the inhibition at 1 µM was found to be 90.6%.

For the compound `O=S(=O)(c1cccc(N2CCNCC2)n1)N1CCC(c2ccccc2F)CC1` [Example 51, 1-{6-[4-(2-Fluoro-phenyl)-piperidine-1-sulfonyl]-pyridin-2-yl}-piperazine], the inhibition at 1 µM is 97%.

With `Cc1ccccc1O[C@@H]1CCN(C(=O)c2cccc(N3CCCN(C)CC3)n2)C1` [Example 53, [6-(4-Methyl-[1,4]diazepan-1-yl)-pyridin-2-yl]-((R)-3-o-tolyloxy-pyrrolidin-1-yl)-methanone], the inhibition at 1 µM turned out to be 95.9%.

For the compound `Cc1ccc([C@@H](C)N(C)C(=O)c2cccc(N3CCN(C)CC3)n2)cc1` [Example 60, 6-(4-Methyl-piperazin-1-yl)-pyridine-2-carboxylic acid methyl-((R)-1-p-tolyl-ethyl)-amide], the inhibition at 1 µM was found to be 73.8%.

For `Cc1ccccc1C1CCN(S(=O)(=O)c2cccc(N3CCN(C)CC3)n2)CC1` [Example 78, 1-Methyl-4-[6-(4-o-tolyl-piperidine-1-sulfonyl)-pyridin-2-yl]-piperazine], the inhibition at 1 µM was 98.5%.

As for `Cc1cccc([C@H]2CCCCN2C(=O)c2cccc(N3CCCN(C)CC3)n2)c1` [Example 81], the inhibition at 1 µM came to 93.6%.

Turning to `Cc1ccccc1C1CN(C(=O)c2cccc(N3CCN(C)CC3)n2)C1` [Example 82, [6-(4-Methyl-piperazin-1-yl)-pyridin-2-yl]-(3-o-tolyl-azetidin-1-yl)-methanone], the inhibition at 1 µM stood at 91.3%.

Consider `CN1CCN(c2cccc(C(=O)N3CC(c4ccccc4F)C3)n2)CC1` [Example 83, [3-(2-Fluoro-phenyl)-azetidin-1-yl]-[6-(4-methyl-piperazin-1-yl)-pyridin-2-yl]-methanone], for which the inhibition at 1 µM was determined as 84.4%.

As to `CN1CCN(c2cccc(C(=O)N3CC(c4cccc(F)c4)C3)n2)CC1` [Example 84, [3-(3-Fluoro-phenyl)-azetidin-1-yl]-[6-(4-methyl-piperazin-1-yl)-pyridin-2-yl]-methanone], the inhibition at 1 µM was found to be 78%.

Consider `CN1CCCN(c2cccc(C(=O)N3CCCC[C@@H]3c3ccccc3F)n2)CC1` [Example 89, [(R)-2-(2-Fluoro-phenyl)-piperidin-1-yl]-[6-(4-methyl-[1,4]diazepan-1-yl)-pyridin-2-yl]-methanone], for which the inhibition at 1 µM turned out to be 92.3%.

On to `Cc1cccc(C2CN(C(=O)c3cccc(N4CCN(C)CC4)n3)C2)c1` [Example 91, [6-(4-Methyl-piperazin-1-yl)-pyridin-2-yl]-(3-m-tolyl-azetidin-1-yl)-methanone], for which the inhibition at 1 µM came out at 84.8%.

As to `CN1CCN(c2cccc(C(=O)N3CCCC(c4cccc(F)c4)C3)n2)CC1` (stereo not shown) [Example 94, [3-(3-Fluoro-phenyl)-piperidin-1-yl]-[6-(4-methyl-piperazin-1-yl)-pyridin-2-yl]-methanone], the inhibition at 1 µM was 90.8%.

Consider `Cc1ccccc1OC1CCN(C(=O)c2cccc(C3CCN(C)CC3)n2)CC1` [Example 95, (1′-Methyl-1′,2′,3′,4′,5′,6′-hexahydro-[2,4′]bipyridinyl-6-yl)-(4-o-tolyloxy-piperidin-1-yl)-methanone], for which the inhibition at 1 µM amounted to 84%.

With `Cc1ccccc1OC1CCN(C(=O)c2cccc(C3=CCN(C)CC3)n2)CC1` [Example 98, (1′-Methyl-1′,2′,3′,6′-tetrahydro-[2,4′]bipyridinyl-6-yl)-(4-o-tolyloxy-piperidin-1-yl)-methanone], the inhibition at 1 µM was 99.1%.

As for `CN1CCC(c2cccc(C(=O)N3CCC(Oc4ccccc4F)CC3)n2)CC1` [Example 99, [4-(2-Fluoro-phenoxy)-piperidin-1-yl]-(1′-methyl-1′,2′,3′,4′,5′,6′-hexahydro-[2,4′]bipyridinyl-6-yl)-methanone], the inhibition at 1 µM stood at 78.4%.

With `CN1CC=C(c2cccc(C(=O)N3CCC(Oc4ccccc4Cl)CC3)n2)CC1` [Example 100, [4-(2-Chloro-phenoxy)-piperidin-1-yl]-(1′-methyl-1′,2′,3′,6′-tetrahydro-[2,4′]bipyridinyl-6-yl)-methanone], the inhibition at 1 µM amounted to 102%.

As to `CN1CC=C(c2cccc(C(=O)N3CCC(Oc4ccccc4C(F)(F)F)CC3)n2)CC1` [Example 101, (1′-Methyl-1′,2′,3′,6′-tetrahydro-[2,4′]bipyridinyl-6-yl)-[4-(2-trifluoromethyl-phenoxy)-piperidin-1-yl]-methanone], the inhibition at 1 µM came out at 96.9%.

Regarding `CN1CCN(c2cccc(C(=O)N3CCC(F)(c4ccccc4F)CC3)n2)CC1` [Example 107, [4-Fluoro-4-(2-fluoro-phenyl)-piperidin-1-yl]-[6-(4-methyl-piperazin-1-yl)-pyridin-2-yl]-methanone], the inhibition at 1 µM was 97.2%.

On to `CN1CCC(c2cccc(C(=O)N3CCC(c4ccc(F)cc4F)CC3)n2)C1` (stereo not shown) [Example 108, [4-(2,4-Difluoro-phenyl)-piperidin-1-yl]-[6-(1-methyl-pyrrolidin-3-yl)-pyridin-2-yl]-methanone], for which the inhibition at 1 µM amounted to 95.4%.

On to `CN1CCN(c2cccc(C(=O)N3CCC(Oc4ccc(F)cc4F)CC3)n2)CC1` [Example 109, [4-(2,4-Difluoro-phenoxy)-piperidin-1-yl]-[6-(4-methyl-piperazin-1-yl)-pyridin-2-yl]-methanone], for which the inhibition at 1 µM worked out at 97.8%.

`Cc1cccc(F)c1C1CCN(C(=O)c2cccc(C3=CCNC3)n2)CC1` [Example 110, [6-(2,5-Dihydro-1H-pyrrol-3-yl)-pyridin-2-yl]-[4-(2-fluoro-6-methyl-phenyl)-piperidin-1-yl]-methanone]: the inhibition at 1 µM worked out at 98.2%.

Consider `CN1CCC(c2cccc(C(=O)N3CCC(Oc4ccccc4F)CC3)n2)C1` (stereo not shown) [Example 113, [4-(2-Fluoro-phenoxy)-piperidin-1-yl]-[6-(1-methyl-pyrrolidin-3-yl)-pyridin-2-yl]-methanone], for which the inhibition at 1 µM turned out to be 97.8%.

On to `Cc1ccccc1C1CCN(C(=O)c2cccc(N3CCN(C4CC4)CC3)n2)CC1` [Example 114, [6-(4-Cyclopropyl-piperazin-1-yl)-pyridin-2-yl]-(4-o-tolyl-piperidin-1-yl)-methanone], for which the inhibition at 1 µM came to 64.5%.
